Results on eleven compounds are retold here after US11492361B2, “Compounds useful in HIV therapy” (GlaxoSmithKline Intellectual Property Development Limited, priority 2018, dated 2022).

Where a name gives a salt, the structure may show the parent alone.

In this assay the test system is Jurkat HIV-luciferase clones. In words: Jurkat latency reversal assay. It counts as cell-based. Conditions: Homo sapiens, Jurkat, 48 h. The method, then: Jurkat HIV-luciferase clones were maintained in RPMI medium 1640 (Gibco by Life Technologies) containing 10% (vol/vol) fetal bovine serum (SAFC/Sigma-Aldrich) and 25 units/mL penicillin, 25 units/mL streptomycin (Gibco by Life Technologies), and were split 1:4 every 3 to 4 days to maintain a cell density of ˜0.3 to 1 million cells/mL. The Jurkat clones were maintained with the addition of 500 nM EFV in the medium. Three Jurkat cell clones (C16, I15, and N6), each harboring one or two integrated HIV proviruses expressing the luciferase reporter gene, were added at equal amounts for a total of 5,000 cells per well to 384-well plates containing compound titrations. Dose-response testing was performed on compounds dissolved in dimethyl sulfoxide (DMSO, Fisher Scientific, Merelbeke, Belgium) dispensed in duplicate serial 3-fold, 14-point titrations using a D300e Digital Droplet Dispenser (Hewlett-Packard) to give final assay concentrations of 10 μM to 2.1 pM in 50 μL of medium at 0.5% DMSO (vol/vol) final concentration. Cells and compound were incubated at 37° C. for 48 hours, unless otherwise indicated, followed by the addition of 20 μL of Steady-Glo® Luciferase (Promega). Luminescence resulting from the induction of the virally expressed luciferase was measured using an EnVision 2102 Multilabel Plate Reader (Perkin Elmer). Dose-response relationships were analyzed with GraphPad PRISM 6 using a four-parameter logistic regression model to calculate the concentration of compound that gives half-maximal response (EC50) and the maximal percent activation compared to the vehicle control.
The term EC50 denotes the concentration at which the effect is half-maximal. With `CN[C@@H](C)C(=S)N[C@H]1CCS[C@H]2CC(C)(C)[C@@H](C(=O)N[C@H](COCCCCOC[C@@H](NC(=O)[C@H]3N4C(=O)[C@@H](NC(=S)[C@H](C)NC)CCS[C@H]4CC3(C)C)c3ccccc3)c3ccccc3)N2C1=O` [compound 37, (4S,4′S,7S,7′S,9aS,9a′S)-N,N′-((1S,1′S)-(butane-1,4-diylbis(oxy))bis(1-phenylethane-2,1-diyl))bis(8,8-dimethyl-4-((S)-2-(methylamino)propanethioamido)-5-oxooctahydropyrrolo[2,1-b][1,3]thiazepine-7-carboxamide) dihydrochloride], the EC50 was determined as 10.9 nM. To `CN[C@@H](C)C(=O)N[C@H]1CCS[C@H]2CC(C)(C)[C@@H](C(=O)N[C@H](COCCOCCOC[C@@H](NC(=O)[C@H]3N4C(=O)[C@@H](NC(=O)[C@H](C)NC)CCS[C@H]4CC3(C)C)c3ccccc3)c3ccccc3)N2C1=O` [compound 38, (4S,4′S,7S,7′S,9aS,9a′S)-N,N′-((1S,1′S)-((oxybis(ethane-2,1-diyl))bis(oxy))bis(1-phenylethane-2,1-diyl))bis(8,8-dimethyl-4-((S)-2-(methylamino)propanamido)-5-oxooctahydropyrrolo[2,1-b][1,3]thiazepine-7-carboxamide)] belongs 50.7 nM; to `CN[C@@H](C)C(=S)N[C@H]1CCS[C@H]2CC(C)(C)[C@@H](C(=O)N[C@H](COCCOCCOC[C@@H](NC(=O)[C@H]3N4C(=O)[C@@H](NC(=S)[C@H](C)NC)CCS[C@H]4CC3(C)C)c3ccccc3)c3ccccc3)N2C1=O` [compound 39, (4S,4′S,7S,7′S,9aS,9a′S)-N,N′-((1S,1′S)-((oxybis(ethane-2,1-diyl))bis(oxy))bis(1-phenylethane-2,1-diyl))bis(8,8-dimethyl-4-((S)-2-(methylamino)propanethioamido)-5-oxooctahydropyrrolo[2,1-b][1,3]thiazepine-7-carboxamide) dihydrochloride], 51.8 nM; to `CN[C@@H](C)C(=S)N[C@H]1CCS[C@H]2CC(C)(C)[C@@H](C(=O)N[C@H](COCCCCCCOC[C@@H](NC(=O)[C@H]3N4C(=O)[C@@H](NC(=S)[C@H](C)NC)CCS[C@H]4CC3(C)C)c3ccccc3)c3ccccc3)N2C1=O` [compound 41, (4S,4′S,7S,7′S,9aS,9a′S)-N,N′-((1S,1′S)-(hexane-1,6-diylbis(oxy))bis(1-phenylethane-2,1-diyl))bis(8,8-dimethyl-4-((S)-2-(methylamino)propanethioamido)-5-oxooctahydropyrrolo[2,1-b][1,3]thiazepine-7-carboxamide) dihydrochloride], 51.6 nM.

As to `CN[C@@H](C)C(=S)N[C@H]1CCS[C@H]2CC(C)(C)[C@@H](C(=O)N[C@H](COCc3ccc(COC[C@@H](NC(=O)[C@H]4N5C(=O)[C@@H](NC(=S)[C@H](C)NC)CCS[C@H]5CC4(C)C)c4ccccc4)cc3)c3ccccc3)N2C1=O` [compound 43, (4S,4′S,7S,7′S,9aS,9a′S)-N,N′-((1S,1′S)-((1,4-phenylenebis(methylene))bis(oxy))bis(1-phenylethane-2,1-diyl))bis(8,8-dimethyl-4-((S)-2-(methylamino)propanethioamido)-5-oxooctahydropyrrolo[2,1-b][1,3]thiazepine-7-carboxamide) dihydrochloride], the EC50 came to 43.4 nM. As to `CN[C@@H](C)C(=S)N[C@H]1CCS[C@H]2CC(C)(C)[C@@H](C(=O)N[C@H]3c4ccccc4C[C@H]3C(=O)NCc3ccc(CNC(=O)[C@@H]4Cc5ccccc5[C@@H]4NC(=O)[C@H]4N5C(=O)[C@@H](NC(=S)[C@H](C)NC)CCS[C@H]5CC4(C)C)cc3)N2C1=O` [compound 44, (4S,7S,9aS)-N-[(1R,2R)-2-({[4-({[(1R,2R)-1-[(4S,7S,9aS)-8,8-dimethyl-4-[(2S)-2-(methylamino)propanethioamido]-5-oxo-octahydropyrrolo[2,1-b][1,3]thiazepine-7-amido]-2,3-dihydro-1H-inden-2-yl]formamido}methyl)phenyl]methyl}carbamoyl)-2,3-dihydro-1H-inden-1-yl]-8,8-dimethyl-4-[(2S)-2-(methylamino)propanethioamido]-5-oxo-octahydropyrrolo[2,1-b][1,3]thiazepine-7-carboxamide], the EC50 was 20.4 nM. For `CN[C@@H](C)C(=O)N[C@H]1CCS[C@H]2CC(C)(C)[C@@H](C(=O)N[C@H]3c4ccccc4C[C@H]3C(=O)NCc3ccc(CNC(=O)[C@@H]4Cc5ccccc5[C@@H]4NC(=O)[C@H]4N5C(=O)[C@@H](NC(=O)[C@H](C)NC)CCS[C@H]5CC4(C)C)cc3)N2C1=O` [compound 45, (4S,7S,9aS)-N-[(1R,2R)-2-({[4-({[(1R,2R)-1-[(4S,7S,9aS)-8,8-dimethyl-4-[(2S)-2-(methylamino)propanamido]-5-oxo-octahydropyrrolo[2,1-b][1,3]thiazepine-7-amido]-2,3-dihydro-1H-inden-2-yl]formamido}methyl)phenyl]methyl}carbamoyl)-2,3-dihydro-1H-inden-1-yl]-8,8-dimethyl-4-[(2S)-2-(methylamino)propanamido]-5-oxo-octahydropyrrolo[2,1-b][1,3]thiazepine-7-carboxamide], the EC50 is 183 nM. On to `CN[C@@H](C)C(=O)N[C@H]1CCS[C@H]2CC(C)(C)[C@@H](C(=O)N[C@H]3c4ccccc4C[C@H]3C(=O)N3CCN(C(=O)[C@@H]4Cc5ccccc5[C@@H]4NC(=O)[C@H]4N5C(=O)[C@@H](NC(=O)[C@H](C)NC)CCS[C@H]5CC4(C)C)CC3)N2C1=O` [compound 46, (4S,7S,9aS)-N-[(1R,2R)-2-{4-[(1R,2R)-1-[(4S,7S,9aS)-8,8-dimethyl-4-[(2S)-2-(methylamino)propanamido]-5-oxo-octahydropyrrolo[2,1-b][1,3]thiazepine-7-amido]-2,3-dihydro-1H-indene-2-carbonyl]piperazine-1-carbonyl}-2,3-dihydro-1H-inden-1-yl]-8,8-dimethyl-4-[(2S)-2-(methylamino)propanamido]-5-oxo-octahydropyrrolo[2,1-b][1,3]thiazepine-7-carboxamide], for which the EC50 came out at 127 nM. To `CN[C@@H](C)C(=S)N[C@H]1CCS[C@H]2CC(C)(C)[C@@H](C(=O)N[C@H]3c4ccccc4C[C@H]3C(=O)N3CCN(C(=O)[C@@H]4Cc5ccccc5[C@@H]4NC(=O)[C@H]4N5C(=O)[C@@H](NC(=S)[C@H](C)NC)CCS[C@H]5CC4(C)C)CC3)N2C1=O` [compound 47, (4S,7S,9aS)-N-[(1R,2R)-2-{4-[(1R,2R)-1-[(4S,7S,9aS)-8,8-dimethyl-4-[(2S)-2-(methylamino)propanethioamido]-5-oxo-octahydropyrrolo[2,1-b][1,3]thiazepine-7-amido]-2,3-dihydro-1H-indene-2-carbonyl]piperazine-1-carbonyl}-2,3-dihydro-1H-inden-1-yl]-8,8-dimethyl-4-[(2S)-2-(methylamino)propanethioamido]-5-oxo-octahydropyrrolo[2,1-b][1,3]thiazepine-7-carboxamide] belongs 1.2 nM. Take `CN[C@@H](C)C(=O)N[C@H]1CCS[C@H]2CC(C)(C)[C@@H](C(=O)N[C@H]3c4ccccc4C[C@H]3C(=O)NCC#CC#CCNC(=O)[C@@H]3Cc4ccccc4[C@@H]3NC(=O)[C@H]3N4C(=O)[C@@H](NC(=O)[C@H](C)NC)CCS[C@H]4CC3(C)C)N2C1=O` [compound 49, (4S,7S,9aS)-N-[(1R,2R)-2-[(6-{[(1R,2R)-1-[(4S,7S,9aS)-8,8-dimethyl-4-[(2S)-2-(methylamino)propanamido]-5-oxo-octahydropyrrolo[2,1-b][1,3]thiazepine-7-amido]-2,3-dihydro-1H-inden-2-yl]formamido}hexa-2,4-diyn-1-yl)carbamoyl]-2,3-dihydro-1H-inden-1-yl]-8,8-dimethyl-4-[(2S)-2-(methylamino)propanamido]-5-oxo-octahydropyrrolo[2,1-b][1,3]thiazepine-7-carboxamide]: the EC50 amounted to 466 nM.

With `CN[C@@H](C)C(=O)N[C@H]1CCS[C@H]2CC(C)(C)[C@@H](C(=O)N[C@H]3c4ccccc4C[C@H]3OCCCOCCCO[C@@H]3Cc4ccccc4[C@@H]3NC(=O)[C@H]3N4C(=O)[C@@H](NC(=O)[C@H](C)NC)CCS[C@H]4CC3(C)C)N2C1=O` [compound 51, (4S,7S,9aS)-N-[(1S,2R)-2-[3-(3-{[(1S,2R)-1-[(4S,7S,9aS)-8,8-dimethyl-4-[(2S)-2-(methylamino)propanamido]-5-oxo-octahydropyrrolo[2,1-b][1,3]thiazepine-7-amido]-2,3-dihydro-1H-inden-2-yl]oxy}propoxy)propoxy]-2,3-dihydro-1H-inden-1-yl]-8,8-dimethyl-4-[(2S)-2-(methylamino)propanamido]-5-oxo-octahydropyrrolo[2,1-b][1,3]thiazepine-7-carboxamide], the EC50 was found to be 24 nM.
